Assay results published in ChEMBL document CHEMBL1156230, “Identification of phenylsulfone-substituted quinoxaline (WYE-672) as a tissue selective liver X-receptor (LXR) agonist” (J Med Chem, 2010).
Activity calls are given as the source filed them. The rule behind the calls is not given here.

How the values were obtained:
[1] = system: Mus musculus; experiment: Antiatherosclerotic activity against high fat/high cholesterol fed LDLR-deficient mouse assessed as ldlr gene regulation at 0.6 mg/kg administered with diet for 7 days by Experion chip analysis; type: functional, organism-based; design: dose 0.6 mg/kg
[2] = system: Mus musculus; experiment: Antiatherosclerotic activity against high fat/high cholesterol fed LDLR-deficient mouse assessed as pltp gene regulation at 3 mg/kg administered with diet for 7 days by Experion chip analysis; type: functional, organism-based; design: dose 3 mg/kg
[3] = Half life in C57 mouse at 10 mg/kg, po; type: ADME, organism-based; design: dose 10 mg/kg, route oral; settings: in vivo
[4] = target: T1, Nuclear receptor subfamily 1 group I member 2 (Homo sapiens, UniProt O75469); experiment: Binding affinity to PXR
T1 sequence (O75469 whole entry): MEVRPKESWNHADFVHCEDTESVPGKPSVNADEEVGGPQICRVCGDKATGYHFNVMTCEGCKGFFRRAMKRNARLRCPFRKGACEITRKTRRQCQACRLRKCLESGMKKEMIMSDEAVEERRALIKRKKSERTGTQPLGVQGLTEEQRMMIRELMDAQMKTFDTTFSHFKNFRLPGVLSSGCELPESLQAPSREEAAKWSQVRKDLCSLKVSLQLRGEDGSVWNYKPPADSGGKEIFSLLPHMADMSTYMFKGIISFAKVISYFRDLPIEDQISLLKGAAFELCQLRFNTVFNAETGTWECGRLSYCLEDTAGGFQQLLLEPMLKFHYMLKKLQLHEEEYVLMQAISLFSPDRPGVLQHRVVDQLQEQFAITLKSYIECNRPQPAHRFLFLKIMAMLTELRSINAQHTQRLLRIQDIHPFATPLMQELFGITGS

[5] = target: T2, Glucocorticoid receptor (Homo sapiens) (UniProt P04150); experiment: Binding affinity to glucocorticoid receptor
T2 sequence (whole entry): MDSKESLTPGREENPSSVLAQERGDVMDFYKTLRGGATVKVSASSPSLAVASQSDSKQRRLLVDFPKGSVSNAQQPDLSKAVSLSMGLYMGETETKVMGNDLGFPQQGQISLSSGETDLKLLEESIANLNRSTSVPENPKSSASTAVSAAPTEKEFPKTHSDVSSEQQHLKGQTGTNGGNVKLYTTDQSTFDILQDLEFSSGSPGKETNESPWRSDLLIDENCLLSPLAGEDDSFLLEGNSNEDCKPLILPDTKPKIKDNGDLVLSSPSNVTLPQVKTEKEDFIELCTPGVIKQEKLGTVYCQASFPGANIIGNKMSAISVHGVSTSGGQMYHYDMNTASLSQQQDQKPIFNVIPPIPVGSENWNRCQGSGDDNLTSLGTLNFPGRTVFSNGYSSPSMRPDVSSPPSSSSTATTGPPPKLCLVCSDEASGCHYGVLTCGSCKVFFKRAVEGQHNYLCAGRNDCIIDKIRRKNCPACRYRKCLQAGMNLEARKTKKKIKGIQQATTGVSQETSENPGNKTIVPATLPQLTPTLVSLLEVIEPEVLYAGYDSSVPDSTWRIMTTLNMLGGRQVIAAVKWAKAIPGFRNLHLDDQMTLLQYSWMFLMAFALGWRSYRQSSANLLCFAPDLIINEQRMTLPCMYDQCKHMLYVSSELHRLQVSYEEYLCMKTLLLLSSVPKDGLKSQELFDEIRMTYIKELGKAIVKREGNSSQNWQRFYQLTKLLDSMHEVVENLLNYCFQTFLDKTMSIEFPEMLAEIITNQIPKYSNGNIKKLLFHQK

[6] = target: T3, Estrogen receptor (Homo sapiens) (UniProt P03372); experiment: Binding affinity to estrogen receptor
T3 sequence (whole entry): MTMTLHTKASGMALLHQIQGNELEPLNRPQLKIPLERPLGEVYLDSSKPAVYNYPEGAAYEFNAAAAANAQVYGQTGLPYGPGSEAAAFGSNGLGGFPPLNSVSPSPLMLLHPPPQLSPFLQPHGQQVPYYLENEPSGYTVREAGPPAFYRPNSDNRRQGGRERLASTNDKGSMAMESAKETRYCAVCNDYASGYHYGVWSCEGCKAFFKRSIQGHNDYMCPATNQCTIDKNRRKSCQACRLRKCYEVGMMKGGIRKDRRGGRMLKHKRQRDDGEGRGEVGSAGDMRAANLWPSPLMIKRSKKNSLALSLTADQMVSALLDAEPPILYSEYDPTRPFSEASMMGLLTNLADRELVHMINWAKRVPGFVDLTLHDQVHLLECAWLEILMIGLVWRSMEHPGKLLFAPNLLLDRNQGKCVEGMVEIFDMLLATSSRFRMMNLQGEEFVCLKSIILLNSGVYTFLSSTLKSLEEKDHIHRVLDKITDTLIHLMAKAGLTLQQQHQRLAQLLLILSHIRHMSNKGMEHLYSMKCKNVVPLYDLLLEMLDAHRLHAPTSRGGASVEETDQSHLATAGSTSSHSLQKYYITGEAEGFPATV

[7] = Binding affinity to thyroid hormone receptor
[8] = system: THP-1; experiment: Induction of [3H]cholesterol efflux in human THP1 cells assessed as lipid accumulation; type: functional, cell-based
[9] = system: THP-1; experiment: Induction of [3H]cholesterol efflux in human THP1 cells assessed as lipid accumulation relative to T0901317; type: functional
[10] = target: Oxysterols receptor LXR-beta (Homo sapiens, UniProt P55055)
Chain of Oxysterols receptor LXR-beta (P55055 whole entry): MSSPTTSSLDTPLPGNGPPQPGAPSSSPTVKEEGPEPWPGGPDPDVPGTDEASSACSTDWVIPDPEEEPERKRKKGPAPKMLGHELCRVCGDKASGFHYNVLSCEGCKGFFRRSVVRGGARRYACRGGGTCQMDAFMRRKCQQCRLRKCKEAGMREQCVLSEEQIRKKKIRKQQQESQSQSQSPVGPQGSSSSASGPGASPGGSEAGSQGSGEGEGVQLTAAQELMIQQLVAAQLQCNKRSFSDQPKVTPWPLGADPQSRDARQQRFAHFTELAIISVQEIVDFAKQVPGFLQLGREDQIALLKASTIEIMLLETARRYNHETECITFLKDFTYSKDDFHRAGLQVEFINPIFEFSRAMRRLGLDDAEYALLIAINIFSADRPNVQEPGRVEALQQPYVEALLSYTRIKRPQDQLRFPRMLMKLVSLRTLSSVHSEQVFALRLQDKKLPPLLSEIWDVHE

[11] = target: Oxysterols receptor LXR-alpha (Homo sapiens, UniProt Q13133)
Chain of Oxysterols receptor LXR-alpha (Q13133 whole entry, looked up): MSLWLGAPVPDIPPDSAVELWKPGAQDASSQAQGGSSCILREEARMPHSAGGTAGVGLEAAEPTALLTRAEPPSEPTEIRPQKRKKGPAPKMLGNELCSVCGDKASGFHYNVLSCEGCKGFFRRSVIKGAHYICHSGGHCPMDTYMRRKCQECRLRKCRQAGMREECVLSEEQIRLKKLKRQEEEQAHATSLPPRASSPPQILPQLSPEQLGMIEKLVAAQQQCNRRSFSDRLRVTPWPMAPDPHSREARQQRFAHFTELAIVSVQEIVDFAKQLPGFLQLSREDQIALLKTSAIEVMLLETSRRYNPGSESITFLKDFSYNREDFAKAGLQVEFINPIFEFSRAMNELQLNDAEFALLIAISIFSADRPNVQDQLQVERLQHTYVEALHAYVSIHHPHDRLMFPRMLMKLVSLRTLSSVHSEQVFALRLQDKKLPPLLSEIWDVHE

[12] = system: THP-1; experiment: cells; settings: Homo sapiens

O=C(O)Cc1cccc(OCCCN(Cc2cccc(C(F)(F)F)c2Cl)CC(c2ccccc2)c2ccccc2)c1
Activity [1]: Active
Activity [2]: Active

Cc1nc2c(C(F)(F)F)cccc2nc1-c1ccc(-c2cccc(S(C)(=O)=O)c2)cc1
half-life [3]: > 1200 min
Activity [4]: Not Active
Activity [5]: inactive
Activity [6]: inactive
Activity [7]: inactive
EC50 [8]: 72 nM
Efficacy [9]: 60%
EC50 [10]: > 1000 nM
EC50 [11]: > 1000 nM
EC50 [12]: 1090 nM
